Series [1] concerns Staphylococcus aureus MRQR (methicillin resistant and quinolone resistant). Nature of the series: MIC, agar-dilution, Staphylococci. The settings on record: inoculum 10^4 CFU/spot, 37° C., 24 hours. The series is classed as cell-based. The protocol:
(§1) The following results were obtained on a standard in-vitro test system. The activity is described in terms of the minimum inhibitory concentration (MIC) determined by the agar-dilution technique with an inoculum size of 10^4 CFU/spot. Typically, compounds are active in the range 0.01 to 256 μg/ml.
(§2) Staphylococci were tested on agar, using an inoculum of 10^4 CFU/spot and an incubation temperature of 37° C. for 24 hours—standard test conditions for the expression of methicillin resistance.

The subject of series [2] is Staphylococcus aureus MSQS (methicillin sensitive and quinolone sensitive). Description: MIC, agar-dilution, Staphylococci. The series is classed as cell-based. The settings on record: inoculum 10^4 CFU/spot, 37° C., 24 hours. The protocol:
as §1, §2

The test system of series [3] is Streptococcus pneumoniae. Description: MIC, agar-dilution on agar with 5% defibrinated horse blood, Streptococci. The series is classed as cell-based. To be noted: 10^4 CFU/spot, 37° C., 5% carbon dioxide, 48 hours. The protocol: as §1
(§3) Streptococci and enterococci were tested on agar supplemented with 5% defibrinated horse blood, an inoculum of 10^4 CFU/spot and an incubation temperature of 37° C. in an atmosphere of 5% carbon dioxide for 48 hours—blood is required for the growth of some of the test organisms. Fastidious Gram negative organisms were tested in Mueller-Hinton broth, supplemented with hemin and NAD, grown aerobically for 24 hours at 37° C., and with an innoculum of 5×10^4 CFU/well.

Series [4] concerns Streptococcus pyogenes. The series is described as above. The series is classed as cell-based. To be noted: 10^4 CFU/spot, 37° C., 5% carbon dioxide, 48 hours. The protocol:
as §1, §3

Series [5] concerns Haemophilus influenzae. Nature of the series: MIC, fastidious Gram negative organisms in Mueller-Hinton broth. Type of series: cell-based. The settings on record: Mueller-Hinton broth with hemin and NAD, aerobic, 24 hours, 37° C., 5×10^4 CFU/well. The protocol: as §1, §3
For series [6], the system named is Moraxella catarrhalis. The description is as above. Type of series: cell-based. The settings on record: Mueller-Hinton broth with hemin and NAD, aerobic, 24 hours, 37° C., 5×10^4 CFU/well. How it is done:
as §1, §3

≈ marks a conversion by molar mass, not a printed value.

Turning to `CC(=O)NC[C@H]1CN(c2ccc(-c3ccc(N4C[C@H](CNC(C)=O)OC4=O)cc3F)c(F)c2)C(=O)O1` [Example 1, (5S,5′S)-N-(3-{4′-[5-(Acetylamino-methyl)-2-oxo-oxazolidin-3-yl]-2,2′-difluoro-biphenyl-4-yl}-2-oxo-oxazolidin-5-ylmethyl)-acetamide], the MIC in series [1] came out at 0.5 µg/mL (≈ 0.995 µM); in series [2] it was 0.25 µg/mL (≈ 0.498 µM); in series [3], 0.06 µg/mL (≈ 0.119 µM); in series [4] it was 0.13 µg/mL (≈ 0.259 µM); in series [5] it was 2 µg/mL (≈ 3.98 µM); in series [6], 0.5 µg/mL (≈ 0.995 µM).

Take `CC(=O)NC[C@H]1CN(c2ccc(-c3ccc(N4C[C@H](CNC(C)=O)OC4=O)s3)s2)C(=O)O1` [Example 62, N-{[(5S)-3-(5′-{5-[(Acetylamino)methyl]-2-oxo-1,3-oxazolidin-3-yl}-2,2′-bithien-5-yl)-2-oxo-1,3-oxazolidin-5-yl]methyl}acetamide]: the melting point (usually the temperature of the solid-liquid transition) fell in the range of 257 to 260 °C.

Source of the values: US7396847B2, “Oxazolidinone and/or isoxazoline as antibacterial agents” (AstraZeneca AB, priority 2001, dated 2008).
